Test results taken from PubChem BioAssay AID328 (DTP/NCI, 2004).
Several values for one entry are separate records, joined by “and”; a condition that tells them apart may be missing. Identical values can stand only once. Toxic doses and inconclusive results are not listed. Rule for the calls: active = survival T/C of 150% or more; inactive = T/C below 125% in these data.

Test system: BDF1 mice, P388 leukemia ip, median survival T/C
Experiment: NCI In Vivo Anticancer Drug Screen. Data for tumor model P388 Leukemia (intraperitoneal) in B6D2F1 (BDF1) mice
Conditions: endpoint: median survival time, higher = longer survival
Protocol: The antitumor activity of compounds was measured in mice bearing transplantable tumors. Survival or tumor size were measured and the results are expressed as the measurement made in the treated group (T) divided by the measurement made in the vehicle treated control group (C). The tumor model used in this assay is P388 Leukemia (intraperitoneal) in B6D2F1 (BDF1) mice

[1] = dose: 100.0 mg/kg/injection, schedule: Q04DX003 (ip), vehicle: Klucel (hydroxypropylcellulose) (HPC)
[2] = dose: 200.0 mg/kg/injection, schedule: Q04DX003 (ip), vehicle: Klucel (hydroxypropylcellulose) (HPC)
[3] = dose: 400.0 mg/kg/injection, schedule: Q04DX003 (ip), vehicle: Klucel (hydroxypropylcellulose) (HPC)
[4] = dose: 50.0 mg/kg/injection, schedule: Q01DX009 (ip), vehicle: saline with Tween-80
[5] = dose: 100.0 mg/kg/injection, schedule: Q01DX009 (ip), vehicle: saline with Tween-80
[6] = dose: 50.0 mg/kg/injection, schedule: Q01DX009 (ip), vehicle: saline

Measured: T/C

CC(=O)c1cnn(-c2ccccc2)c1C
inactive: dose: 100.0 mg/kg/injection, schedule: Q01DX001 (ip), vehicle: Klucel (hydroxypropylcellulose) (HPC) 104 % of control | dose: 100.0 mg/kg/injection, schedule: Q01DX009 (ip), vehicle: other 105 % of control | [1] 104 % of control | dose: 200.0 mg/kg/injection, schedule: Q01DX001 (ip), vehicle: Klucel (hydroxypropylcellulose) (HPC) 109 % of control | dose: 200.0 mg/kg/injection, schedule: Q01DX009 (ip), vehicle: other 100 % of control | [2] 86 % of control | dose: 400.0 mg/kg/injection, schedule: Q01DX001 (ip), vehicle: Klucel (hydroxypropylcellulose) (HPC) 109 % of control | dose: 400.0 mg/kg/injection, schedule: Q01DX009 (ip), vehicle: other 100 % of control | [3] 90 % of control

CC(=O)OCC(=O)[C@@]1(O)CC[C@H]2[C@@H]3CCC4=CC(=O)C=C[C@]4(C)[C@H]3C(=O)C[C@@]21C
inactive: dose: 25.0 mg/kg/injection, schedule: Q01DX009 (ip), vehicle: saline with Tween-80 109 % of control | [4] 122 % of control | dose: 63.75 mg/kg/injection, schedule: Q01DX009 (ip), vehicle: Klucel (hydroxypropylcellulose) (HPC) 113 % of control | [5] 118 % of control | [1] 100 % of control | dose: 127.5 mg/kg/injection, schedule: Q01DX009 (ip), vehicle: Klucel (hydroxypropylcellulose) (HPC) 122 % of control | [2] 104 % of control | dose: 255.0 mg/kg/injection, schedule: Q01DX009 (ip), vehicle: Klucel (hydroxypropylcellulose) (HPC) 100 % of control | [3] 104 % of control

CCOC(=S)Nc1ccc(F)cc1
inactive: dose: 33.7 mg/kg/injection, schedule: Q01DX009 (ip), vehicle: saline with Tween-80 94 % of control | dose: 67.5 mg/kg/injection, schedule: Q01DX009 (ip), vehicle: saline with Tween-80 103 % of control | dose: 135.0 mg/kg/injection, schedule: Q01DX009 (ip), vehicle: saline with Tween-80 102 % of control

COc1cc(C=O)ccc1OCc1ccccc1
inactive: dose: 1.0 mg/kg/injection, schedule: Q01DX009 (ip), vehicle: saline with Tween-80 109 % of control | dose: 2.0 mg/kg/injection, schedule: Q01DX009 (ip), vehicle: saline with Tween-80 104 % of control | dose: 4.0 mg/kg/injection, schedule: Q01DX009 (ip), vehicle: saline with Tween-80 104 % of control | dose: 8.0 mg/kg/injection, schedule: Q01DX009 (ip), vehicle: saline with Tween-80 92 % of control | dose: 100.0 mg/kg/injection, schedule: Q04DX003 (ip), vehicle: saline with Tween-80 95 % of control | dose: 200.0 mg/kg/injection, schedule: Q04DX003 (ip), vehicle: saline with Tween-80 109 % of control | dose: 400.0 mg/kg/injection, schedule: Q04DX003 (ip), vehicle: saline with Tween-80 109 % of control

C=CC(=O)O
active: dose: 6.0 mg/kg/injection, schedule: Q04DX003 (ip), vehicle: saline sonified 172 % of control
inactive: dose: 0.2 mg/kg/injection, schedule: Q01DX001 (ip), vehicle: Klucel (hydroxypropylcellulose) (HPC) 95 % of control | dose: 0.41 mg/kg/injection, schedule: Q01DX001 (ip), vehicle: Klucel (hydroxypropylcellulose) (HPC) 100 % of control | dose: 0.82 mg/kg/injection, schedule: Q01DX001 (ip), vehicle: Klucel (hydroxypropylcellulose) (HPC) 104 % of control | dose: 1.15 mg/kg/injection, schedule: Q04DX003 (ip), vehicle: Klucel (hydroxypropylcellulose) (HPC) 109 % of control | dose: 1.65 mg/kg/injection, schedule: Q01DX001 (ip), vehicle: Klucel (hydroxypropylcellulose) (HPC) 115 % of control | dose: 2.3 mg/kg/injection, schedule: Q04DX003 (ip), vehicle: Klucel (hydroxypropylcellulose) (HPC) 100 % of control | dose: 3.0 mg/kg/injection, schedule: Q01DX009 (ip), vehicle: saline 100 % of control | dose: 3.0 mg/kg/injection, schedule: Q04DX003 (ip), vehicle: saline sonified 109 % of control | dose: 4.0 mg/kg/injection, schedule: Q04DX003 (ip), vehicle: saline 116 % of control | dose: 4.6 mg/kg/injection, schedule: Q04DX003 (ip), vehicle: Klucel (hydroxypropylcellulose) (HPC) 100 % of control | dose: 6.0 mg/kg/injection, schedule: Q01DX009 (ip), vehicle: saline 100 % of control | dose: 6.6 mg/kg/injection, schedule: Q04DX003 (ip), vehicle: Klucel (hydroxypropylcellulose) (HPC) 109 % of control | dose: 8.0 mg/kg/injection, schedule: Q04DX003 (ip), vehicle: saline 122 % of control | dose: 12.0 mg/kg/injection, schedule: Q04DX003 (ip), vehicle: saline 122 % of control | dose: 18.0 mg/kg/injection, schedule: Q04DX003 (ip), vehicle: saline 122 % of control

CCC(C(N)C(=O)O)C(F)(F)F (stereo not drawn)
inactive: dose: 50.0 mg/kg/injection, schedule: Q01DX005 (ip), vehicle: saline 103 % of control | dose: 100.0 mg/kg/injection, schedule: Q01DX005 (ip), vehicle: saline 108 % of control | dose: 200.0 mg/kg/injection, schedule: Q01DX005 (ip), vehicle: saline 103 % of control

O=c1[nH]n(-c2ccccc2)c(=O)cc1Cl
inactive: [4] 95 % of control | [5] 87 % of control | dose: 200.0 mg/kg/injection, schedule: Q01DX009 (ip), vehicle: saline with Tween-80 90 % of control

COc1cc2nccc3c4ccccc4n(c1=O)c23
inactive: dose: 100.0 mg/kg/injection, schedule: Q01DX010 (ip), vehicle: saline 90 % of control | dose: 200.0 mg/kg/injection, schedule: Q01DX010 (ip), vehicle: saline 90 % of control | dose: 400.0 mg/kg/injection, schedule: Q01DX010 (ip), vehicle: saline 95 % of control | dose: 800.0 mg/kg/injection, schedule: Q01DX010 (ip), vehicle: saline 100 % of control

C[CH2][Ge]1([CH2]C)[CH2]CC2(CCN(CCCN(C)C)C2)C[CH2]1
inactive: dose: 0.5 mg/kg/injection, schedule: Q01DX009 (ip), vehicle: saline 105 % of control | dose: 1.0 mg/kg/injection, schedule: Q01DX009 (ip), vehicle: saline 102 % of control | dose: 2.0 mg/kg/injection, schedule: Q01DX009 (ip), vehicle: saline 103 % of control | dose: 4.0 mg/kg/injection, schedule: Q01DX009 (ip), vehicle: saline 104 % of control and 118 % of control | dose: 8.0 mg/kg/injection, schedule: Q01DX009 (ip), vehicle: saline 102 % of control | dose: 16.0 mg/kg/injection, schedule: Q01DX009 (ip), vehicle: saline 103 % of control | dose: 32.0 mg/kg/injection, schedule: Q01DX009 (ip), vehicle: saline 100 % of control | [6] 102 % of control | dose: 60.0 mg/kg/injection, schedule: Q01DX009 (ip), vehicle: saline with Tween-80 92 % of control | dose: 64.0 mg/kg/injection, schedule: Q01DX009 (ip), vehicle: saline 91 % of control

CCCCCCCCCCCCCCCCCC(=O)[O][Sn]([CH2]CCC)([CH2]CCC)[O]C(=O)CCCCCCCCCCCCCCCCC
inactive: dose: 12.5 mg/kg/injection, schedule: Q04DX003 (ip), vehicle: other 121 % of control

CCOC(=O)c1c(N)ssc1=S
inactive: dose: 6.25 mg/kg/injection, schedule: Q01DX009 (ip), vehicle: saline 101 % of control | dose: 12.5 mg/kg/injection, schedule: Q01DX009 (ip), vehicle: saline 113 % of control | dose: 25.0 mg/kg/injection, schedule: Q01DX009 (ip), vehicle: saline 100 % of control | [6] 111 % of control | dose: 100.0 mg/kg/injection, schedule: Q01DX009 (ip), vehicle: saline 113 % of control | dose: 100.0 mg/kg/injection, schedule: Q04DX003 (ip), vehicle: saline 112 % of control | dose: 200.0 mg/kg/injection, schedule: Q01DX009 (ip), vehicle: saline 93 % of control and 104 % of control | dose: 200.0 mg/kg/injection, schedule: Q04DX003 (ip), vehicle: saline 86 % of control | dose: 300.0 mg/kg/injection, schedule: Q01DX009 (ip), vehicle: saline 91 % of control

COc1cc2c(c3c1c(=O)c1cc(O)ccc1n3C)C=CC(C)(C)O2
inactive: dose: 5.0 mg/kg/injection, schedule: Q01DX009 (ip), vehicle: Klucel (hydroxypropylcellulose) (HPC) 114 % of control | dose: 10.0 mg/kg/injection, schedule: Q01DX009 (ip), vehicle: Klucel (hydroxypropylcellulose) (HPC) 113 % of control | dose: 20.0 mg/kg/injection, schedule: Q01DX009 (ip), vehicle: Klucel (hydroxypropylcellulose) (HPC) 112 % of control | dose: 40.0 mg/kg/injection, schedule: Q01DX009 (ip), vehicle: Klucel (hydroxypropylcellulose) (HPC) 106 % of control
